Source: publication PMC8286840, “Identifying SARS-CoV-2 antiviral compounds by screening for small molecule inhibitors of Nsp3 papain-like protease” (Biochemical Journal, 2021)
Counter-ions that a name gives are not always drawn. Like-named read-outs stand apart in the source and are kept apart here. Where a SMILES comes first, the peptide text is derived from it. [ ]: non-standard residue; d: D form. The star is where a group is joined. Dolaproine = CO[C@@H]([C@@H]1CCCN1)[C@@H](C)C(=O)O; Hexanoyl(6-maleimido) = O=C1C=CC(=O)N1CCCCCC(=O)*; Dil = CC[C@H](C)[C@H](NC)[C@@H](CC(=O)O)OC; X2 = C[C@@H](N*)[C@@H](O)c1ccccc1; NMeV = CN[C@H](C(=O)O)C(C)C

Experiments:
[1] = biological target: T1, SARS-CoV-2 PLpro (nsp3 1564–1878) (Severe acute respiratory syndrome coronavirus 2, UniProt P0DTD1); assay: biochemical; set-up: FRET-quenched peptide (Pro3) cleavage by PLpro, 10 min pre-incubation, slope over 20 min, normalised to no-compound control; details: high concentration screen, read-out: % of control remaining
[2] = biological target: T1, SARS-CoV-2 PLpro (nsp3 1564–1878); assay: biochemical; set-up: FRET-quenched peptide (Pro3) cleavage by PLpro, 10 min pre-incubation, slope over 20 min, normalised to no-compound control; details: low concentration screen, read-out: % of control remaining

O=C(O)c1ccc(O)cc1O [2,4-Dihydroxybenzoic acid]
remaining activity at 3.75 µM ([1]; Well no.=6781): 101%
remaining activity at 1.25 µM ([2]; Well no.=6781): 102%

COc1ccc(C[C@@H](C)NC[C@H](O)c2ccc(O)c(NC=O)c2)cc1 [Formoterol]
remaining activity at 3.75 µM ([1]; Well no.=473): 99.6%
remaining activity at 1.25 µM ([2]; Well no.=473): 101%

Cc1cncc2cccc(S(=O)(=O)N3CCCN(C(=O)CN)C[C@@H]3C)c12 [Rho Kinase Inhibitor IV]
remaining activity at 3.75 µM ([1]; Well no.=2559): 105%
remaining activity at 1.25 µM ([2]; Well no.=2559): 104%

COc1cc(N)c(Cl)cc1C(=O)N[C@@H]1CCN(CCCOc2ccc(F)cc2)C[C@@H]1OC (racemic) [Cisapride]
remaining activity at 3.75 µM ([1]; Well no.=6909): 90.7%
remaining activity at 1.25 µM ([2]; Well no.=6909): 91.7%

Cc1nc(N=Nc2ccc(C(=O)O)cc2)c(COP(=O)(O)O)c(C=O)c1O [MRS 2159]
remaining activity at 3.75 µM ([1]; Well no.=1030): 101%
remaining activity at 1.25 µM ([2]; Well no.=1030): 102%

CC(C)[C@H]1C(=O)N[C@@H](CCCNC(=N)N)C(=O)NCC(=O)N[C@@H](CC(=O)O)C(=O)N[C@H](Cc2ccccc2)C(=O)N1C [Cilengitide (EMD 121974, NSC 707544)]
remaining activity at 3.75 µM ([1]; Well no.=5174): 96.2%
remaining activity at 1.25 µM ([2]; Well no.=5174): 94.8%

CC[C@H](CO)Nc1nc(NCc2ccccc2O)c2ncn(C(C)C)c2n1 [Olomoucine II]
remaining activity at 3.75 µM ([1]; Well no.=2523): 102%
remaining activity at 1.25 µM ([2]; Well no.=2523): 99.8%

C[C@H](N[C@@H](CCc1ccccc1)C(=O)O)C(=O)N1CCC[C@H]1C(=O)O [Enalaprilat]
remaining activity at 3.75 µM ([1]; Well no.=1900): 93.8%
remaining activity at 3.75 µM ([1]; Well no.=5968): 98.2%
remaining activity at 1.25 µM ([2]; Well no.=1900): 95.1%
remaining activity at 1.25 µM ([2]; Well no.=5968): 99.8%

CN1C[C@@H]2C[C@H]1CN2c1cc2c(cc1F)c(=O)c(C(=O)O)cn2C1CC1 [Danofloxacin Mesylate]
remaining activity at 3.75 µM ([1]; Well no.=5322): 86.3%
remaining activity at 1.25 µM ([2]; Well no.=5322): 87.6%

CC[C@H](C)[C@@H]([C@@H](CC(=O)N1CCC[C@H]1[C@H](OC)[C@@H](C)C(=O)N[C@H](C)[C@@H](O)c1ccccc1)OC)N(C)C(=O)[C@@H](NC(=O)[C@H](C(C)C)N(C)C(=O)CCCCCN1C(=O)C=CC1=O)C(C)C [Mc-MMAE] ({Hexanoyl(6-maleimido)}-[NMeV]V[Dil][Dolaproine]-X2)
remaining activity at 3.75 µM ([1]; Well no.=8552): 98.9%
remaining activity at 1.25 µM ([2]; Well no.=8552): 93.6%

C=C1C[C@]23C[C@@]1(O)CC[C@H]2[C@@]12C=C[C@H](O)[C@@](C)(C(=O)O1)[C@H]2[C@@H]3C(=O)O [(+)-Gibberellic acid]
remaining activity at 3.75 µM ([1]; Well no.=3212): 105%
remaining activity at 1.25 µM ([2]; Well no.=3212): 103%

Cc1nccn1CC1CCc2c(c3ccccc3n2C)C1=O (stereo not drawn) [Ondansetron]
remaining activity at 3.75 µM ([1]; Well no.=2104): 102%
remaining activity at 1.25 µM ([2]; Well no.=2104): 102%

NC(N)=NCCNS(=O)(=O)c1cccc2cnccc12 [HA-1004 hydrochloride]
remaining activity at 3.75 µM ([1]; Well no.=522): 99.3%
remaining activity at 1.25 µM ([2]; Well no.=522): 101%

C[C@H](CCC(=O)NCCS(=O)(=O)O)[C@H]1CC[C@H]2[C@@H]3[C@@H](O)C[C@@H]4C[C@H](O)CC[C@]4(C)[C@H]3CC[C@]12C [Tauroursodeoxycholate (Sodium)]
remaining activity at 3.75 µM ([1]; Well no.=6310): 104%
remaining activity at 1.25 µM ([2]; Well no.=6310): 102%

COc1cccc2c1[C@@H]1CN(CCCCn3c(=O)[nH]c4c(sc5ncc(-c6ccccc6)nc54)c3=O)C[C@@H]1CO2 [Fiduxosin hydrochloride]
remaining activity at 3.75 µM ([1]; Well no.=611): 97.4%
remaining activity at 1.25 µM ([2]; Well no.=611): 97.2%

CCCCN1CCC(CNC(=O)c2c3n(c4ccccc24)CCCO3)CC1 [Piboserod]
remaining activity at 3.75 µM ([1]; Well no.=7965): 93.6%
remaining activity at 1.25 µM ([2]; Well no.=7965): 93.1%

CCCc1nc(C(C)(C)O)c(C(=O)OCc2oc(=O)oc2C)n1Cc1ccc(-c2ccccc2-c2nnn[nH]2)cc1 [Olmesartan (medoxomil)]
remaining activity at 3.75 µM ([1]; Well no.=7579): 92.2%
remaining activity at 1.25 µM ([2]; Well no.=7579): 98.2%

Cc1ccc(O)c(O)c1 [4-Methylcatechol]
remaining activity at 3.75 µM ([1]; Well no.=6739): 108%
remaining activity at 1.25 µM ([2]; Well no.=6739): 106%

O=C(O)CCCC/C=C\C[C@@H](O)/C=C/C=C/C=C\[C@@H](O)CCCC(=O)O [20-Carboxy-leukotriene B4]
remaining activity at 3.75 µM ([1]; Well no.=4427): 98.4%
remaining activity at 1.25 µM ([2]; Well no.=4427): 94.3%

COc1c(O)cc2oc(-c3ccc(O)cc3)cc(=O)c2c1O [5,7-dihydroxy-2-(4-hydroxyphenyl)-6-methoxy-4H-chromen-4-one]
remaining activity at 3.75 µM ([1]; Well no.=5542): 102%
remaining activity at 1.25 µM ([2]; Well no.=5542): 101%

CC(=O)N1CCC(C(=O)N(CCCN2CCC(Cc3ccc(C(N)=O)cc3)CC2)c2ccc(C)c(Cl)c2)CC1 [TAK-220]
remaining activity at 3.75 µM ([1]; Well no.=8363): 92.9%
remaining activity at 1.25 µM ([2]; Well no.=8363): 94.6%

Cn1cc(-c2ccc3nnc(Sc4ccc5ncccc5c4)n3n2)cn1 [SGX-523]
remaining activity at 3.75 µM ([1]; Well no.=4665): 106%
remaining activity at 1.25 µM ([2]; Well no.=4665): 104%

CC(COc1ccccc1)N(CCCl)Cc1ccccc1 (stereo not drawn) [Phenoxybenzamine hydrochloride]
remaining activity at 3.75 µM ([1]; Well no.=371): 91.2%
remaining activity at 1.25 µM ([2]; Well no.=371): 95.1%

COC(=O)/C(=C1/OC(=O)C(c2ccccc2)=C1O)c1ccccc1 [Vulpinic acid]
remaining activity at 3.75 µM ([1]; Well no.=3513): 104%
remaining activity at 1.25 µM ([2]; Well no.=3513): 102%

CO[C@H]1[C@H](O)[C@H](O[C@H]2CC[C@@]3(C=O)[C@H](CC[C@@H]4[C@@H]3CC[C@]3(C)[C@@H](C5=CC(=O)OC5)CC[C@]43O)C2)O[C@@H](C)[C@@H]1O [Peruvoside]
remaining activity at 3.75 µM ([1]; Well no.=3687): 102%
remaining activity at 1.25 µM ([2]; Well no.=3687): 97.8%

Cn1cc(C(F)(F)F)nc1-c1ccc(OCC(O)CNCCOc2ccc(O)c(C(N)=O)c2)cc1 (stereo not drawn) [CGP 20712A methanesulfonate]
remaining activity at 3.75 µM ([1]; Well no.=585): 106%
remaining activity at 1.25 µM ([2]; Well no.=585): 105%

Cc1cc2c(cc1CC(=O)c1sccc1S(=O)(=O)Nc1onc(C)c1Cl)OCO2 [Sitaxsentan (sodium)]
remaining activity at 3.75 µM ([1]; Well no.=8533): 106%
remaining activity at 1.25 µM ([2]; Well no.=8533): 105%

C/C=C(/C)C(=O)O[C@H]1CC[C@@]2(C)[C@@H]3CC[C@H]4[C@]5(O)C[C@H](O)[C@@]6(O)[C@@H](CN7C[C@@H](C)CC[C@H]7[C@@]6(C)O)[C@]5(O)C[C@@]42O[C@]13O [Cevadine]
remaining activity at 3.75 µM ([1]; Well no.=3139): 102%
remaining activity at 1.25 µM ([2]; Well no.=3139): 103%

CNC(=O)c1cccc(-c2ccc3c(N4CCOC[C@@H]4C)nc(N4CCOC[C@@H]4C)nc3n2)c1 [AZD2014]
remaining activity at 3.75 µM ([1]; Well no.=5115): 107%
remaining activity at 1.25 µM ([2]; Well no.=5115): 106%

CNC(=O)c1ccccc1Oc1nc(Nc2cc(OC)c(OC)c(OC)c2)ncc1Br [SBI-0206965]
remaining activity at 3.75 µM ([1]; Well no.=7028): 103%
remaining activity at 1.25 µM ([2]; Well no.=7028): 105%

C[N+](C)(C)[C@@H](Cc1c[nH]c(=S)[nH]1)C(=O)[O-] [Ergothioneine]
remaining activity at 3.75 µM ([1]; Well no.=1612): 98.8%
remaining activity at 1.25 µM ([2]; Well no.=1612): 100%

Cc1ccc(S(=O)(=O)N2c3ccccc3Oc3ccccc32)cc1 [10-[(4-methylphenyl)sulfonyl]-10H-phenoxazine]
remaining activity at 3.75 µM ([1]; Well no.=6041): 96.7%
remaining activity at 1.25 µM ([2]; Well no.=6041): 96.2%
